Molecules are shown by their SMILES.

The target in assay [1] is cGMP-specific 3',5'-cyclic phosphodiesterase (Homo sapiens, UniProt O76074). In words: DRUGMATRIX: Phosphodiesterase PDE5 enzyme inhibition (substrate: [3H]cGMP + cGMP). Type of assay: tissue-based, Platelet. The following applies: platelet; Not Active = under 50% inhibition at 10 µM.
Assay [2] has as its target Melanocortin receptor 5 (Homo sapiens, UniProt P33032). Type of assay: cell membranes, HEK293, Membrane. Further: in other assays of this panel Not Active means under 50% inhibition at 10 µM.
Assay [3] concerns the target Protein phosphatase 3 catalytic subunit alpha (Homo sapiens, UniProt Q08209). Also noted: species or system Escherichia coli.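 Further: inhibition of calcineurin (PP2B) enzyme activity, measured with DiFMUP as the substrate; in other assays of this panel Not Active means under 50% inhibition at 10 µM.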
The target of assay [4] is Beta-3 adrenergic receptor (Homo sapiens, UniProt P13945). Briefly: DRUGMATRIX: Adrenergic beta3 radioligand binding (ligand: [125I] Cyanopindolol). Type of assay: cell membranes, HEK293, Membrane. The following applies: Not Active = under 50% inhibition at 10 µM; for Ki: read-out: Ki.
Sequence of Beta-3 adrenergic receptor (P13945 whole entry): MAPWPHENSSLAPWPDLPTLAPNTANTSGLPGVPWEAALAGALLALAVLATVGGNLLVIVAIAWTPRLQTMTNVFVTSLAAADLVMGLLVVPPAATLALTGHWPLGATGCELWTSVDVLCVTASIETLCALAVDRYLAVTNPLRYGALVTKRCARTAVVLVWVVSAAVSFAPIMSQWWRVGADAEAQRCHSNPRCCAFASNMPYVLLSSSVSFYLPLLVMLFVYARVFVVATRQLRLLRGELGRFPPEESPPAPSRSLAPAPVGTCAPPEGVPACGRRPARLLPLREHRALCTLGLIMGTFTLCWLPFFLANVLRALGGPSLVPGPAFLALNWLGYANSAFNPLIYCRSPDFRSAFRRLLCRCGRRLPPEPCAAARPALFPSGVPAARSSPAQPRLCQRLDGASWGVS
Assay [5] is described as follows: DRUGMATRIX: Platelet-Derived Growth Factor (PDGF) radioligand binding (ligand: [125I] PDGF). The class given is cell-based. The following applies: nih3t3; Not Active = under 50% inhibition at 10 µM.
For assay [6], the target named is 5-hydroxytryptamine receptor 6 (Homo sapiens, UniProt P50406). The class given is cell membranes, HeLa, Membrane. The following applies: for Ki: read-out: Ki. On all read-outs here: in other assays of this panel Not Active means under 50% inhibition at 10 µM.
Sequence of 5-hydroxytryptamine receptor 6 (P50406 whole entry): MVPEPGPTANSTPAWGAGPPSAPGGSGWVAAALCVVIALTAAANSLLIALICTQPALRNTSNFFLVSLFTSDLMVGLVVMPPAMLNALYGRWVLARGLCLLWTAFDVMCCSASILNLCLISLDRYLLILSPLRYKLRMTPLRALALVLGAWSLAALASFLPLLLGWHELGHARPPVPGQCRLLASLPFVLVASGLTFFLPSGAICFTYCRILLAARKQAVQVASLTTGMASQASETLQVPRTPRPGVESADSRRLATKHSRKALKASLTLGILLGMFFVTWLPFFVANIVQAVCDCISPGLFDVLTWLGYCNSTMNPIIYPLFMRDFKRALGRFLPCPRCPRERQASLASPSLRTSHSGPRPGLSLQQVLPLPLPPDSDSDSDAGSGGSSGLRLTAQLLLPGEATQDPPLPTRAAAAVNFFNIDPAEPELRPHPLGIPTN
A short description of assay [7]: DRUGMATRIX: Purinergic P2X radioligand binding (ligand: [3H] alpha, beta-Methylene-ATP). The class given is cell membranes, Oryctolagus cuniculus, New Zealand albino, Urinary bladder, Membrane. The following applies: Not Active = under 50% inhibition at 10 µM.
Assay [8] deals with T1, Cathepsin G (Homo sapiens, UniProt P08311).
T1 sequence (P08311 whole entry): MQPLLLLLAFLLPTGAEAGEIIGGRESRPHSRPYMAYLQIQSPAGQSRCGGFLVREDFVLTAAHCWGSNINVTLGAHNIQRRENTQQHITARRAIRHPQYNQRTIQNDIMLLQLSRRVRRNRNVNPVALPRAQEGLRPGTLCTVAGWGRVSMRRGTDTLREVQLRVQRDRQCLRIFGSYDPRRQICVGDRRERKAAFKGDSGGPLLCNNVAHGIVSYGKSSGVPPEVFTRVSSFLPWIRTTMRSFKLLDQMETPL
Type of assay: tissue-based. The following applies: neutrophil.

Assay [9] has as its target Mitogen-activated protein kinase 14 (Homo sapiens, UniProt Q16539). The arrangement: species or system Escherichia coli.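 Further: inhibition of p38alpha enzyme activity in a biochemical kinase assay, with myelin basic protein serving as substrate; in other assays of this panel Not Active means under 50% inhibition at 10 µM.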
For assay [10], the target named is T2, Amine oxidase [flavin-containing] A (Homo sapiens, UniProt P21397).
T2 sequence (P21397 whole entry): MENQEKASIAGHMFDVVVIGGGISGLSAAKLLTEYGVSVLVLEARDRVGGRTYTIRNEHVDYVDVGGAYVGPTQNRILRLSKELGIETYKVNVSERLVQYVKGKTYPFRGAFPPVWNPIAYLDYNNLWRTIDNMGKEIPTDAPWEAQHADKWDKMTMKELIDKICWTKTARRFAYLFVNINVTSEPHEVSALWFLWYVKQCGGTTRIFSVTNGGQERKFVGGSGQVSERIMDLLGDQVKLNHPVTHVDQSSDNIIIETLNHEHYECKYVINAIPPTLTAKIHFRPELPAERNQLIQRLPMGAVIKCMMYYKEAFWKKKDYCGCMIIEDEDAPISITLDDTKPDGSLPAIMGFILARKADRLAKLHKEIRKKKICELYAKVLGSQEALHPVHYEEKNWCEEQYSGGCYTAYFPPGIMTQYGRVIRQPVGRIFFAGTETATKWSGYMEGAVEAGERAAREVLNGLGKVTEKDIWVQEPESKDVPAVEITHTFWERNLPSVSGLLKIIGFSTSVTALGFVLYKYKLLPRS
Briefly: DRUGMATRIX: Monoamine Oxidase MAO-A enzyme inhibition (substrate: Kynuramine). Also noted: species or system BTI-TN-5B1-4. The following applies: bti-tn-5b1-4; Not Active = under 50% inhibition at 10 µM.

Assay [11] addresses Epidermal growth factor receptor (Homo sapiens, UniProt P00533). In words: DRUGMATRIX: Protein Tyrosine Kinase, EGF Receptor enzyme inhibition (substrate: Poly(Glu:Tyr)). Conditions: Not Active = under 50% inhibition at 10 µM. Type of assay: cell-based, Insect cells.
The target of assay [12] is T3, C-C chemokine receptor type 4 (Homo sapiens, UniProt P51679). Further: in other assays of this panel Not Active means under 50% inhibition at 10 µM.
T3 sequence (P51679 whole entry): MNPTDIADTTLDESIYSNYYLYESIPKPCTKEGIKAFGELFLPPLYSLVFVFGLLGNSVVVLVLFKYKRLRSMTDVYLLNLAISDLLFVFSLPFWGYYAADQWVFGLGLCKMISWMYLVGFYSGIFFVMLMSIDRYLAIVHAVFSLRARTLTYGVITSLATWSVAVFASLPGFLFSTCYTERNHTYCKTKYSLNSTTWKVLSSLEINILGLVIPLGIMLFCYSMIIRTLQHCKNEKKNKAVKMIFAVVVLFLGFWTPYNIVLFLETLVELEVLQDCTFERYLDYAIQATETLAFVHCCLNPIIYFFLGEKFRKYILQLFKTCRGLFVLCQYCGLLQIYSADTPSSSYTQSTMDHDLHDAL
Type of assay: cell membranes, Membrane. The following applies: chem-1.

Assay [13] concerns the target Beta-2 adrenergic receptor (Homo sapiens, UniProt P07550). Briefly: DRUGMATRIX: Adrenergic beta2 radioligand binding (ligand: [3H] CGP-12177). The class given is cell membranes, Membrane. The following applies: cho; Not Active = under 50% inhibition at 10 µM.

Sequence of Melanocortin receptor 5 (P33032 whole entry): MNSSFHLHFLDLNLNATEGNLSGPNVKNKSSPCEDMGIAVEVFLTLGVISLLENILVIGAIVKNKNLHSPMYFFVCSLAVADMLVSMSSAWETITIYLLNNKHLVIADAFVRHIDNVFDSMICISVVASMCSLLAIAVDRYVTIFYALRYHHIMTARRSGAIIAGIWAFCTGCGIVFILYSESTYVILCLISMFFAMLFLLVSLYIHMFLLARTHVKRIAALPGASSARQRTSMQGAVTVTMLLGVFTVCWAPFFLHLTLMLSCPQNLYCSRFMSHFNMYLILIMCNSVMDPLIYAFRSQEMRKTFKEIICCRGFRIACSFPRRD
Sequence of Epidermal growth factor receptor (P00533 whole entry): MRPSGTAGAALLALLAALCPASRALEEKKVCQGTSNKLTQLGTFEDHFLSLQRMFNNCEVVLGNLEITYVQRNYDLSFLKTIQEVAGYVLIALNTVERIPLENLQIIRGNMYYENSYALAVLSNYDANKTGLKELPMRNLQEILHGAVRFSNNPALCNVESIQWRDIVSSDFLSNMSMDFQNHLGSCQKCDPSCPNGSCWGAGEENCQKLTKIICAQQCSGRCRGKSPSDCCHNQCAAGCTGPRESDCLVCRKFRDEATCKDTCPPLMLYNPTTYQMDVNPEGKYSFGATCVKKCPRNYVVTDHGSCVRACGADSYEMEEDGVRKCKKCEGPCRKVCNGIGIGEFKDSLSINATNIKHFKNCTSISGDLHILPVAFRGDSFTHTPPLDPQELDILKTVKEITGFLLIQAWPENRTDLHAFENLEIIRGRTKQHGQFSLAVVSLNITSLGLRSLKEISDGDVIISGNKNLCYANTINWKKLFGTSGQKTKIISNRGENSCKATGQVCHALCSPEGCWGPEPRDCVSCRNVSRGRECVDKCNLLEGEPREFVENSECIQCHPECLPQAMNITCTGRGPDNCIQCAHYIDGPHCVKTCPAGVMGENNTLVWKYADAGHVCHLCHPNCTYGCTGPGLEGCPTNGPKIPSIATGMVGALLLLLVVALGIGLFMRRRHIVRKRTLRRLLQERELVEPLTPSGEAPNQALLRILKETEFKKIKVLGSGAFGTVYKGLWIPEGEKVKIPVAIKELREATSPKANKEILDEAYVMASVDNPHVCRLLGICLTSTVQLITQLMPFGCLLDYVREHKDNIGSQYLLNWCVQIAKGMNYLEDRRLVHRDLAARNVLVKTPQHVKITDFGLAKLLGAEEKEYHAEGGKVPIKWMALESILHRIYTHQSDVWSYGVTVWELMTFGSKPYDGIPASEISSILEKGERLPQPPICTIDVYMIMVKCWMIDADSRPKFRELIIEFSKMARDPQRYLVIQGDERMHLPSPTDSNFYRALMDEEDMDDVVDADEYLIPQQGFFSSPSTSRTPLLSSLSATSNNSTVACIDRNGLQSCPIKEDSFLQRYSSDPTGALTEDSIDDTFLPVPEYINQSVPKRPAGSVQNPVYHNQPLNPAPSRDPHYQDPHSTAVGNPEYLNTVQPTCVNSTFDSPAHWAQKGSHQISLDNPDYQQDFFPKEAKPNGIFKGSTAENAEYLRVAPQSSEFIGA
Sequence of Mitogen-activated protein kinase 14 (Q16539 whole entry): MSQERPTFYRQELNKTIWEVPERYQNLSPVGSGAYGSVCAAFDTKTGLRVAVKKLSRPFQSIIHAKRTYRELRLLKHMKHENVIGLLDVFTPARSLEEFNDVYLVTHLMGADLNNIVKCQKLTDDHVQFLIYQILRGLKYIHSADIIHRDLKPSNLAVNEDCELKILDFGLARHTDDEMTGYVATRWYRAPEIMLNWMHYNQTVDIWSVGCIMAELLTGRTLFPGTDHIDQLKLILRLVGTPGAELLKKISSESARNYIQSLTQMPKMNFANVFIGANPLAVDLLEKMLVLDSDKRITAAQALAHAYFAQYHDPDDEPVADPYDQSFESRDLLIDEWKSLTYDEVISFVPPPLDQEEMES
Sequence of Beta-2 adrenergic receptor (P07550 whole entry): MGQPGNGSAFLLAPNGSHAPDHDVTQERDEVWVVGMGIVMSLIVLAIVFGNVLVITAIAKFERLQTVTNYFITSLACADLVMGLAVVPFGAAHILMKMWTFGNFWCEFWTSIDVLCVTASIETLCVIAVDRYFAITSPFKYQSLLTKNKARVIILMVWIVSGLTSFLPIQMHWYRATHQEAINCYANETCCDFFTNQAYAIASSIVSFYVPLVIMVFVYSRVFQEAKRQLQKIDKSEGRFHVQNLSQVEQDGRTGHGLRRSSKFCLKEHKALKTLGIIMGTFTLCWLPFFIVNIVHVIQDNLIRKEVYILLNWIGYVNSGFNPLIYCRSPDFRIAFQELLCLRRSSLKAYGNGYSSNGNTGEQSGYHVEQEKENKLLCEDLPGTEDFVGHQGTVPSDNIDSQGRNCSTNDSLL

On to `CC(C)(C)NCC(O)c1ccc(O)c(CO)c1` (centres undefined) [ALBUTEROL], for which the IC50 result in assay [1], in assay [2] (hek293), in assay [3], in assay [4] (hek293), in [5] and in assay [6] (hela) was “Not Active” throughout. Besides, the IC50 result in assay [7], in [8], in assay [9], in assay [10], in [11] (insect cells) and in assay [12] was “Not Active” each time. For the same compound, the Ki entry in assay [5] and in assay [7] was “Not Active” in each case.

Take `COc1ccc(CCN2CCC(Nc3nc4ccccc4n3Cc3ccc(F)cc3)CC2)cc1` [ASTEMIZOLE]: the IC50 – broadly, the concentration needed to halve the response being measured – is “Not Active” in assay [1]; 2.26 µM in [2] (read-out: IC50); “Not Active” in assay [3]; “Not Active” in assay [8]; “Not Active” in assay [9]; “Not Active” in [10]. In addition, the IC50 in assay [11] (read-out: IC50) is 6.06 µM; in assay [13], “Not Active”; in assay [12], “Not Active”. The Ki (in general, a measure of affinity in units of concentration, obtained from inhibition or displacement) in [2] (read-out: Ki) amounted to 2.12 µM.

As for `CN(C)CCCN1c2ccccc2CCc2ccc(Cl)cc21` [CLOMIPRAMINE], the IC50 result in assay [1] is “Not Active”; in assay [2] (hek293), “Not Active”; in assay [3], “Not Active”; in assay [4] (hek293), “Not Active”; in assay [6] (read-out: IC50), 0.245 µM; in [8], “Not Active”. Moreover, the IC50 result in assay [9], in assay [10], in [11] (insect cells), in assay [13] and in [12] was “Not Active” each time. Further, the Ki in [6] is 0.114 µM.

As for `Clc1ccccc1C(c1ccccc1)(c1ccccc1)n1ccnc1` [CLOTRIMAZOLE], the IC50 entry in assay [1] is “Not Active”; in assay [2] (hek293), “Not Active”; in assay [3] it was “Not Active”; in [4] (read-out: IC50) it was 7.21 µM; in [6] (read-out: IC50), 12.5 µM; in [8] it was “Not Active”. Also, the IC50 entry in assay [9] is “Not Active”; in [10], “Not Active”; in assay [11] (read-out: IC50), 69.4 µM; in assay [12], “Not Active”. The Ki amounted to 5.41 µM in assay [4] and 5.82 µM in [6].

For `O=C(CCCN1CCC(O)(c2ccc(Cl)cc2)CC1)c1ccc(F)cc1` [HALOPERIDOL], the IC50 result in assay [1], in [2] (hek293), in [3], in assay [4] (hek293), in [6] (hela) and in assay [8] was “Not Active” throughout. Also, the IC50 result in assay [9], in [10], in assay [11] (insect cells), in assay [13] and in assay [12] was “Not Active” throughout.

Consider `CC(CCc1ccccc1)NCC(O)c1ccc(O)c(C(N)=O)c1` (centres undefined) [LABETALOL], for which the IC50 result in assay [1], in assay [2] (hek293), in [3], in [4] (hek293), in assay [5] and in [6] (hela) was “Not Active” throughout. Also, the IC50 result in assay [7], in [8], in assay [9], in [10], in assay [11] (insect cells) and in assay [12] was “Not Active” each time. The Ki result in assay [5] and in [7] was “Not Active” each time.

As to `CN1CCN2c3ccccc3Cc3ccccc3C2C1` (centres undefined) [MIANSERIN], the IC50 entry in assay [1], in assay [2] (hek293), in [3], in assay [4] (hek293), in assay [8] and in [9] was “Not Active” in each case. Moreover, the IC50 entry in [10], in assay [11] (insect cells), in [13] and in assay [12] was “Not Active” throughout.

`CC(C)(O)c1ccccc1CC[C@@H](SCC1(CC(=O)O)CC1)c1cccc(/C=C/c2ccc3ccc(Cl)cc3n2)c1` [MONTELUKAST]: the IC50 entry in assay [1] is “Not Active”; in assay [2] (hek293) it was “Not Active”; in assay [3] it was “Not Active”; in [4] (read-out: IC50) it was 4.3 µM; in assay [6] (hela), “Not Active”; in assay [8] it was “Not Active”. The IC50 in assay [9] (read-out: IC50) was 0.856 µM; in assay [10], “Not Active”; in assay [11] (read-out: IC50), 3.2 µM; in assay [12] it was “Not Active”. The Ki in assay [4] was 3.2 µM.

Turning to `CC(C)(C)NCC(O)c1cc(O)cc(O)c1` (centres undefined) [TERBUTALINE], the half-maximal inhibitory concentration (IC50) result in assay [1], in assay [2] (hek293), in assay [3], in assay [4] (hek293), in assay [5] and in assay [6] (hela) was “Not Active” in each case. The IC50 entry in assay [7], in [8], in [9], in [10], in assay [11] (insect cells) and in [12] was “Not Active” in each case. The Ki result in [5] and in assay [7] was “Not Active” each time.

Take `CSc1ccc2c(c1)N(CCC1CCCCN1C)c1ccccc1S2` (centres undefined) [THIORIDAZINE]: the IC50 result in assay [1] was “Not Active”; in assay [2] (hek293), “Not Active”; in assay [3], “Not Active”; in assay [4] (hek293), “Not Active”; in assay [6] (read-out: IC50), 0.071 µM; in assay [8] it was “Not Active”. The IC50 result was “Not Active” in assay [9]; “Not Active” in assay [10]; 2.95 µM in assay [11] (read-out: IC50); “Not Active” in assay [13]; “Not Active” in assay [12]. Further, in assay [6], the Ki is 0.033 µM.

On to `COC(=O)[C@@H]1[C@H]2C[C@H]3c4[nH]c5ccccc5c4CCN3C[C@@H]2CC[C@@H]1O` [YOHIMBINE], for which the IC50 entry in assay [1], in assay [2] (hek293), in assay [3], in [4] (hek293), in assay [5] and in assay [7] was “Not Active” throughout. Further, the IC50 entry in assay [8], in assay [9], in assay [10], in [11] (insect cells), in assay [13] and in assay [12] was “Not Active” in each case. The Ki entry in [5] and in assay [7] was “Not Active” in each case.

These data come from ChEMBL document CHEMBL1909046, “DrugMatrix in vitro pharmacology data”.
